From publication PMC11416114 (Infection and Drug Resistance, 2024)
Several values for one entry are separate records, joined by “and”; a condition that tells them apart may be missing. Equal values may be shown once. Read-outs that look alike come from different tables or passages of the source.

How the values were obtained:
[1] = cited from earlier work
[2] = eight CRRT supported critically ill patients; cited from earlier work
[3] = mild to moderate hepatic impairment; cited from earlier work
[4] = critically ill adult patients; for Residual variability (σ) stdev, Final Model Estimate, Mean: log-additive error
[5] = cited from earlier work; remark: listed apart in the source
clinical = settings: human, in vivo, 300 mg
[6] = limit for steady-state Cpeak; cited from earlier work
[7] = Chinese patients aged 60 and above; typical patient; cited from earlier work
[8] = cited from earlier work; remark: listed apart in the source
SARS-CoV-2 = settings: free exposure, cited from earlier work
[9] = healthy young adults, NIR/RIT 2250mg/100mg once

CC(C)(C)[C@H](NC(=O)C(F)(F)F)C(=O)N1C[C@H]2[C@@H]([C@H]1C(=O)N[C@H](C#N)C[C@@H]1CCNC1=O)C2(C)C [NIR, Nirmatrelvir]
CL/F ([1]; healthy adults aged 18–60): 8.2 L/h | Ka ([1]; healthy adults aged 18–60): 1.11 h⁻¹ | V/F ([1]; healthy adults aged 18–60): 111 L | AUC [1, 9]: 188.2 µg·h/mL | CL/F [1, 9]: 3.97 L/h | V/F [1, 9]: 40.06 L | valley concentrations [2]: 3325.34 to 15625.46 ng/mL | median plasma concentration and AUC in hepatic impairment [3]: comparable to those with normal hepatic function | absorption rate constant (Ka), mean (SD) [4]: 0.42 (0.10) h^−1 and 0.42 h^−1 | apparent clearance (CL/F), mean (SD) [4]: 3.6 (0.26) L/h and 3.6 L/h | Residual variability (σ) stdev, Bootstrap Estimate, Median ([4]; bootstrap): 0.26 | dCLdAUCRIT, Bootstrap Estimate, Median ([4]; bootstrap): −0.44 | dCLdCrCL, Bootstrap Estimate, Median ([4]; bootstrap): 0.58 | ω^2V (inter-individual variability), Bootstrap Estimate, Median ([4]; bootstrap): 0.60 | tvCL, Bootstrap of Final Model Estimate, Median ([4]; bootstrap 1000 samples): 3.2 L/h | tvKa, Bootstrap of Final Model Estimate, Median ([4]; bootstrap 1000 samples): 0.61 h⁻¹ | Residual variability (σ) stdev, Final Model Estimate, Mean ([4]; final model): 0.26 | tvCL, Final Model Estimate, Mean ([4]; one-compartment final model): 3.6 L/h | tvKa, Final Model Estimate, Mean ([4]; one-compartment final model): 0.42 h⁻¹ | CL/F lower than normal renal function group ([5]; moderate renal impairment group): 47% | CL/F lower than normal renal function group ([5]; severe renal impairment group): 80% | AUC (clinical): 107 µg·h/mL | human no observed adverse effect levels (NOAELs) [6]: 79,700 ng/mL | CL/F [7]: 4.16 L/h | Ka [7]: 0.776 h⁻¹ | V/F [7]: 39.1 L | protein binding [8]: approximately 70% | in vitro EC90 (free) (SARS-CoV-2): 0.0905 µg/mL | EC90 (SARS-CoV-2; read-out: in vitro EC90 (free)): 181 nM

CC(C)c1nc(CN(C)C(=O)N[C@H](C(=O)N[C@@H](Cc2ccccc2)C[C@H](O)[C@H](Cc2ccccc2)NC(=O)OCc2cncs2)C(C)C)cs1 [RIT, Ritonavir]
Residual variability (σ) stdev, Bootstrap Estimate, Median ([4]; bootstrap): 0.34 | ω^2CL (inter-individual variability), Bootstrap Estimate, Median ([4]; bootstrap): 0.53 | ω^2V (inter-individual variability), Bootstrap Estimate, Median ([4]; bootstrap): 1.64 | tvCL, Bootstrap of Final Model Estimate, Median ([4]; bootstrap 1000 samples): 10.3 L/h | tvKa, Bootstrap of Final Model Estimate, Median ([4]; bootstrap 1000 samples): 1.10 h⁻¹ | tvV, Bootstrap of Final Model Estimate, Median ([4]; bootstrap 1000 samples): 82.4 L | ω^2CL (inter-individual variability), Final Model Estimate, Mean ([4]; final model): 0.57 | ω^2V (inter-individual variability), Final Model Estimate, Mean ([4]; final model): 1.27 | Residual variability (σ) stdev, Final Model Estimate, Mean ([4]; final model): 0.34 | tvCL, Final Model Estimate, Mean ([4]; one-compartment final model): 10.3 L/h | tvKa, Final Model Estimate, Mean ([4]; one-compartment final model): 0.64 h⁻¹ | tvV, Final Model Estimate, Mean ([4]; one-compartment final model): 84.9 L
